Laboratory results published in paper PMC9143880, “Improving Antimicrobial Activity and Physico-Chemical Properties by Isosteric Replacement of 2-Aminothiazole with 2-Aminooxazole” (Pharmaceuticals, 2022).
In brackets after ≈: the same amount, converted by molar mass. Where two headings read alike, the source gives them in different places.

Columns and labels:
[1] = RP-UHPLC lipophilicity parameter log k’w; assay type: physicochemical
Summary of the method: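 log k’w from isocratic RP-UHPLC with an acetonitrile/water mobile phase, using 40, 45 and 50% acetonitrile for subtype I and 20, 30 and 40% for subtype II. A single run was made at each mobile-phase composition.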

[2] = tested on: HepG2 cells; assay: HepG2 cytotoxicity screening (CellTiter 96); assay type: cell-based, human
[3] = tested on: Mycobacterium tuberculosis H37Ra ITM-M006710 (ATCC 9431); assay: Antimycobacterial MIC, microdilution broth / Alamar Blue (resazurin); assay type: cell-based; conditions: Mycobacterium tuberculosis
[4] = tested on: M. smegmatis DSM 43465 (ATCC 607); assay: Antimycobacterial MIC, microdilution broth / resazurin; assay type: cell-based; conditions: Mycolicibacterium smegmatis; resazurin after 48 h; read-out: MIC M. smegmatis
[5] = tested on: M. aurum DSM 43999 (ATCC 23366); assay: as above; assay type: cell-based; conditions: Mycolicibacterium aurum, read-out: MIC M. aurum
[6] = tested on: M. avium DSM 44156 (ATCC 25291); assay: as above; assay type: cell-based, Mycobacterium avium; conditions: Mycobacterium avium; resazurin after 96 h; read-out: MIC M. avium
[7] = tested on: M. kansasii DSM 44162 (ATCC 12478); assay: as above; assay type: cell-based; conditions: Mycobacterium kansasii; resazurin after 96 h; read-out: MIC M. kansasii
[8] = tested on: Mtb H37Rv CNCTC My 331/88 (ATCC 27294); assay: microbe, parasite or virus in culture; assay type: cell-based; conditions: Mycobacterium tuberculosis, read-out: MIC Mtb H37Rv
[9] = tested on: Mtb IZAK (MDR clinical isolate); assay: microbe, parasite or virus in culture; assay type: cell-based; conditions: Mycobacterium tuberculosis, read-out: MIC Mtb IZAK
[10] = tested on: Mtb MATI (MDR clinical isolate); assay: microbe, parasite or virus in culture; assay type: cell-based; conditions: Mycobacterium tuberculosis, read-out: MIC Mtb MATI
[11] = tested on: Staphylococcus aureus subsp. aureus CCM 4223 (ATCC 29213); assay: Antibacterial microdilution broth (EUCAST); assay type: cell-based; conditions: Staphylococcus aureus
[12] = tested on: Staphylococcus aureus subsp. aureus (MRSA) CCM 4750 (ATCC 43300); assay: Antibacterial microdilution broth (EUCAST); assay type: cell-based; conditions: Staphylococcus aureus
[13] = tested on: Staphylococcus epidermidis CCM 4418 (ATCC 12228); assay: Antibacterial microdilution broth (EUCAST); assay type: cell-based; conditions: Staphylococcus epidermidis
[14] = tested on: Enterococcus faecalis CCM 4224 (ATCC 29212); assay: Antibacterial microdilution broth (EUCAST); assay type: cell-based; conditions: Enterococcus faecalis
[15] = tested on: Escherichia coli CCM 3954 (ATCC 25922); assay: Antibacterial microdilution broth (EUCAST); assay type: cell-based; conditions: Escherichia coli
[16] = tested on: Acinetobacter baumannii DSM 30007 (ATCC 19606); assay: Antibacterial microdilution broth (EUCAST); assay type: cell-based; conditions: Acinetobacter baumannii
[17] = tested on: Pseudomonas aeruginosa CCM 3955 (ATCC 27853); assay: Antibacterial microdilution broth (EUCAST); assay type: cell-based; conditions: Pseudomonas aeruginosa
[18] = tested on: Candida albicans CCM 8320 (ATCC 24433); assay: Antifungal microdilution broth (EUCAST); conditions: Candida albicans, 24 h, read-out: MIC CA
[19] = tested on: Candida krusei CCM 8271 (ATCC 6258); assay: Antifungal microdilution broth (EUCAST); conditions: Pichia kudriavzevii, 24 h, read-out: MIC CK
[20] = tested on: Candida parapsilosis CCM 8260 (ATCC 22019); assay: Antifungal microdilution broth (EUCAST); conditions: Lodderomyces parapsilosis, 24 h, read-out: MIC CP
[21] = tested on: Candida tropicalis CCM 8264 (ATCC 750); assay: Antifungal microdilution broth (EUCAST); conditions: Candida tropicalis, 24 h, read-out: MIC CT
[22] = tested on: Aspergillus fumigatus ATCC 204305; assay: Antifungal microdilution broth (EUCAST); conditions: Aspergillus fumigatus, ATCC204305, 24 h, read-out: MIC AF
[23] = tested on: Aspergillus flavus CCM 8363; assay: Antifungal microdilution broth (EUCAST); conditions: Aspergillus flavus, CCM8363, 24 h, read-out: MIC AFla
[24] = tested on: Lichtheimia corymbifera CCM 8077; assay: Antifungal microdilution broth (EUCAST); conditions: Lichtheimia corymbifera, CCM8077, 24 h, read-out: MIC LC
[25] = tested on: Trichophyton interdigitale CCM 8377 (ATCC 9533); assay: Antifungal microdilution broth (EUCAST); conditions: Trichophyton interdigitale, 72 h, read-out: MIC TI
[26] = tested on: Mtb laboratory ID IZAK; assay type: cell-based, Mycobacterium tuberculosis; conditions: MDR strain IZAK, CLSI breakpoints 2020
[27] = tested on: Mtb laboratory ID MATI; assay type: cell-based, Mycobacterium tuberculosis; conditions: MDR strain MATI, CLSI breakpoints 2021
[28] = tested on: Klebsiella pneumoniae CCM 4415 (ATCC 10031); assay: Antibacterial microdilution broth (EUCAST); assay type: cell-based; conditions: internal quality control, 24 h
[29] = 120 h, Middlebrook 7H9, resazurin after 120 h, read-out: Mtb H37Ra MIC
[30] = internal quality control, 95% growth inhibition, 530 nm, 24 h, read-out: MIC (spectrophotometric detection)
[31] = internal quality control, naked eye, 24 h, read-out: MIC (visual detection)

## Cc1cc(C(=O)Nc2ncco2)cc(Cl)n1 [Compound 7b]
[1]; RP-UHPLC, acetonitrile/water, log k extrapolated to 0% acetonitrile
  log k’w: 1.430
[1]; experimental lipophilicity parameter
  logkw: 1.43
[2]; Homo sapiens, HepG2, 24 h, 24 h incubation, CellTiter 96, * above highest tested concentration, ** limited by insolubility in medium
  IC50: 959 µM
[2]; SI = IC50 (µM) HepG2 / MICH37Ra (µM)
  SI: >58.3
[3]; [29]
  MIC: < 3.91 mg/L
[3]; recalculated from µg/mL, read-out: MICH37Ra
  MIC: < 16.5 µM
[4]
  MIC: 7.81 mg/L (≈ 32.9 µM)
[5]; resazurin after 72 h
  MIC: 3.91 mg/L (≈ 16.5 µM)
[6]
  MIC: 3.91 mg/L (≈ 16.5 µM)
[7]
  MIC: 7.81 mg/L (≈ 32.9 µM)
[8]
  MIC: 6.25 mg/L (≈ 26.3 µM)
[9]
  MIC: 3.13 mg/L (≈ 13.2 µM)
[10]
  MIC: 3.13 mg/L (≈ 13.2 µM)
[11]; 24h incubation, read-out: MIC SA
  MIC: 62.5 µM
[12]; 24h incubation, read-out: MIC MRSA
  MIC: 125 µM
[13]; 24h incubation, read-out: MIC SE
  MIC: 125 µM
[14]; 24h incubation, read-out: MIC EF
  MIC: 500 µM
[15]; 24h incubation, read-out: MIC EC
  MIC: 250 µM
[16]; 24h incubation, read-out: MIC AB
  MIC: 500 µM
[17]; 72h incubation, read-out: MIC PA
  MIC: > 500 µM
other
  melting point: 149 to 153 °C
[18]
  MIC: 125 µM (≈ 29.7 µg/mL)
[19]
  MIC: 500 µM (≈ 119 µg/mL)
[20]
  MIC: 500 µM (≈ 119 µg/mL)
[21]
  MIC: > 500 µM
[22]
  MIC: 250 µM (≈ 59.4 µg/mL)
[23]
  MIC: > 500 µM
[24]
  MIC: 125 µM (≈ 29.7 µg/mL)
[25]
  MIC: 125 µM (≈ 29.7 µg/mL)

## CC[C@@H](CO)NCCN[C@@H](CC)CO [EMB, ethambutol]
[8]
  MIC: 0.39 mg/L (≈ 1.91 µM)
[9]
  MIC: 1.56 mg/L (≈ 7.64 µM)
[10]
  MIC: 1.56 mg/L (≈ 7.64 µM)
[26]
  Concentration (susceptibility profile): 0.5 µg/mL
  Susceptibility: sensitive
[27]
  Concentration (susceptibility profile): 0.5 µg/mL
  Susceptibility: sensitive

## NNC(=O)c1ccncc1 [INH, isoniazid, reference compound]
[3]; [29]
  MIC: 0.25 mg/L
[4]
  MIC: 15.6 to 31.2 mg/L (≈ 114 to 228 µM)
[5]; 72 h
  MIC: 3.91 mg/L (≈ 28.5 µM)
[6]
  MIC: 1000 mg/L (≈ 7290 µM)
[7]
  MIC: 3.12 to 6.25 mg/L (≈ 22.8 to 45.6 µM)
[8]
  MIC: 0.39 mg/L (≈ 2.84 µM)
[9]
  MIC: 12.5 mg/L (≈ 91.1 µM)
[10]
  MIC: 12.5 mg/L (≈ 91.1 µM)
[27]
  Susceptibility: resistant

## CO[C@H]1/C=C/O[C@@]2(C)Oc3c(C)c(O)c4c(O)c(c(/C=N/N5CCN(C)CC5)c(O)c4c3C2=O)NC(=O)/C(C)=C\C=C\[C@H](C)[C@H](O)[C@@H](C)[C@@H](O)[C@@H](C)[C@H](OC(C)=O)[C@@H]1C [RIF, rifampicin]
[4]
  MIC: 12.5 mg/L (≈ 15.2 µM)
[5]; resazurin after 72 h
  MIC: 0.39 mg/L (≈ 0.474 µM)
[7]
  MIC: 0.025 mg/L (≈ 0.0304 µM)
[26]
  Concentration (susceptibility profile): > 8 µg/mL
  Susceptibility: resistant
[27]
  Concentration (susceptibility profile): > 8 µg/mL
  Susceptibility: resistant

## CNC(C)C1CCC(N)C(OC2C(N)CC(N)C(OC3OCC(C)(O)C(NC)C3O)C2O)O1 (centres unmarked) [gentamicin, reference compound]
[11]; [30]
  MIC: 1 mg/L
[11]; [31]
  MIC: 0.5 mg/L
[12]; [30]
  MIC: > 8 mg/L
[12]; [31]
  MIC: > 8 mg/L
[13]; [30]
  MIC: 0.0625 mg/L
[13]; [31]
  MIC: 0.0625 mg/L
[14]; [30]
  MIC: > 8 mg/L
[14]; [31]
  MIC: > 8 mg/L
[15]; [30]
  MIC: 1 mg/L
[15]; [31]
  MIC: 1 mg/L
[28]; 95% growth inhibition, 530 nm, read-out: MIC (spectrophotometric detection)
  MIC: 0.5 mg/L (≈ 1.05 µM)
[28]; naked eye, read-out: MIC (visual detection)
  MIC: 0.5 mg/L (≈ 1.05 µM)
[16]; [30]
  MIC: 8 mg/L
[16]; [31]
  MIC: 8 mg/L
[17]; [30]
  MIC: 0.5 mg/L
[17]; [31]
  MIC: 0.5 mg/L
